Experimental data from patent US11311522B1 (Cavion, Inc., priority 2018, dated 2022).

Assay: PN002/Part II: safety and tolerability
Assay type: in vivo
Source text: Clinical safety was monitored throughout the study by adverse events, clinical laboratory tests, vital signs, ECGs, and ECG telemetry.
The subject was not on telemetry at the time.

## CC(C)c1ccc(CC(=O)N[C@H](C)c2ccc(OCC(F)(F)F)cn2)cc1 [CX-8998]
2 mg/d
  Abnormal physical sensation: 0 n %
  Abnormal sensation of limbs: 0 n %
  Anger: 0 n %
  Application site erythema: 0 n %
  Application site pruritus: 0 n %
  At least 1 adverse event: 4 (66.7) n %
  Backache: 0 n %
  Clamminess: 0 n %
  Daydreaming: 0 n %
  Disorientation: 1 (16.7) n %
  Dizziness: 0 n %
  Drowsiness: 0 n %
  Dyspepsia: 0 n %
  Euphoric mood: 0 n %
  Eye Disorders: 0 n %
  Feeling drunk: 0 n %
  Feeling of relaxation: 0 n %
  Floating feeling: 0 n %
  Fuzzy head: 0 n %
  Gastrointestinal Disorders: 2 (33.3) n %
  Hallucination: 0 n %
  Headache: 1 (16.7) n %
  Heaviness of head: 0 n %
  Hyperactivity: 0 n %
  Hypoaesthesia mouth: 0 n %
  Increased state of alertness: 0 n %
  Intermittent headache: 0 n %
  Lethargy: 0 n %
  Lightheadedness: 0 n %
  Mood altered: 0 n %
  Mood change: 0 n %
  Musculoskeletal and Connective Tissue Disorders: 2 (33.3) n %
  Nausea: 2 (33.3) n %
  Nervous System Disorders: 1 (16.7) n %
  Paraesthesia generalized: 0 n %
  Paranoia: 0 n %
  Psychiatric Disorders: 1 (16.7) n %
  Respiratory, Thoracic and Mediastinal Disorders: 1 (16.7) n %
  Sedation: 0 n %
  Sensation of heaviness: 0 n %
  Sensation of pressure: 0 n %
  Skin and Subcutaneous Tissue Disorders: 0 n %
  Sleep difficult: 0 n %
  Sleep disturbance: 0 n %
  Somnolence: 0 n %
  Sore throat: 1 (16.7) n %
  Spaced out: 0 n %
  Syncope: 1 (16.7) n %
  Taste change: 0 n %
  Temporal disorientation: 0 n %
  Tingling: 1 (16.7) n %
  Tiredness: 1 (16.7) n %
  Visual disturbance: 0 n %
  Vivid dreams: 0 n %
  Vomiting: 1 (16.7) n %
4 mg/d
  Abnormal physical sensation: 0 n %
  Abnormal sensation of limbs: 0 n %
  Anger: 0 n %
  Application site erythema: 0 n %
  Application site pruritus: 0 n %
  At least 1 adverse event: 5 (83.3) n %
  Backache: 0 n %
  Clamminess: 0 n %
  Daydreaming: 0 n %
  Disorientation: 0 n %
  Dizziness: 0 n %
  Drowsiness: 2 (33.3) n %
  Dyspepsia: 0 n %
  Euphoric mood: 1 (16.7) n %
  Eye Disorders: 1 (16.7) n %
  Feeling drunk: 0 n %
  Feeling of relaxation: 4 (66.7) n %
  Floating feeling: 1 (16.7) n %
  Fuzzy head: 1 (16.7) n %
  Gastrointestinal Disorders: 1 (16.7) n %
  Hallucination: 0 n %
  Headache: 3 (50.0) n %
  Heaviness of head: 0 n %
  Hyperactivity: 0 n %
  Hypoaesthesia mouth: 0 n %
  Increased state of alertness: 1 (16.7) n %
  Intermittent headache: 1 (16.7) n %
  Lethargy: 1 (16.7) n %
  Lightheadedness: 4 (66.7) n %
  Mood altered: 0 n %
  Mood change: 0 n %
  Musculoskeletal and Connective Tissue Disorders: 0 n %
  Nausea: 0 n %
  Nervous System Disorders: 5 (83.3) n %
  Paraesthesia generalized: 0 n %
  Paranoia: 0 n %
  Psychiatric Disorders: 3 (50.0) n %
  Respiratory, Thoracic and Mediastinal Disorders: 0 n %
  Sedation: 0 n %
  Sensation of heaviness: 0 n %
  Sensation of pressure: 0 n %
  Skin and Subcutaneous Tissue Disorders: 1 (16.7) n %
  Sleep difficult: 0 n %
  Sleep disturbance: 1 (16.7) n %
  Somnolence: 1 (16.7) n %
  Sore throat: 0 n %
  Spaced out: 0 n %
  Syncope: 0 n %
  Taste change: 0 n %
  Temporal disorientation: 0 n %
  Tingling: 0 n %
  Tiredness: 2 (33.3) n %
  Visual disturbance: 1 (16.7) n %
  Vivid dreams: 2 (33.3) n %
  Vomiting: 0 n %
8 mg/d
  Abnormal physical sensation: 0 n %
  Abnormal sensation of limbs: 0 n %
  Anger: 0 n %
  Application site erythema: 3 (50.0) n %
  Application site pruritus: 1 (16.7) n %
  At least 1 adverse event: 6 (100) n %
  Backache: 0 n %
  Clamminess: 1 (16.7) n %
  Daydreaming: 1 (16.7) n %
  Disorientation: 0 n %
  Dizziness: 0 n %
  Drowsiness: 1 (16.7) n %
  Dyspepsia: 2 (33.3) n %
  Euphoric mood: 2 (33.3) n %
  Eye Disorders: 2 (33.3) n %
  Feeling drunk: 0 n %
  Feeling of relaxation: 1 (16.7) n %
  Floating feeling: 2 (33.3) n %
  Fuzzy head: 1 (16.7) n %
  Gastrointestinal Disorders: 3 (50.0) n %
  Hallucination: 0 n %
  Headache: 5 (83.3) n %
  Heaviness of head: 0 n %
  Hyperactivity: 2 (33.3) n %
  Hypoaesthesia mouth: 0 n %
  Increased state of alertness: 1 (16.7) n %
  Intermittent headache: 1 (16.7) n %
  Lethargy: 1 (16.7) n %
  Lightheadedness: 4 (66.7) n %
  Mood altered: 1 (16.7) n %
  Mood change: 2 (33.3) n %
  Musculoskeletal and Connective Tissue Disorders: 1 (16.7) n %
  Nausea: 1 (16.7) n %
  Nervous System Disorders: 6 (100) n %
  Paraesthesia generalized: 1 (16.7) n %
  Paranoia: 0 n %
  Psychiatric Disorders: 3 (50.0) n %
  Respiratory, Thoracic and Mediastinal Disorders: 3 (50.0) n %
  Sedation: 2 (33.3) n %
  Sensation of heaviness: 1 (16.7) n %
  Sensation of pressure: 2 (33.3) n %
  Skin and Subcutaneous Tissue Disorders: 1 (16.7) n %
  Sleep difficult: 0 n %
  Sleep disturbance: 0 n %
  Somnolence: 2 (33.3) n %
  Sore throat: 1 (16.7) n %
  Spaced out: 1 (16.7) n %
  Syncope: 0 n %
  Taste change: 1 (16.7) n %
  Temporal disorientation: 2 (33.3) n %
  Tingling: 1 (16.7) n %
  Tiredness: 3 (50.0) n %
  Visual disturbance: 1 (16.7) n %
  Vivid dreams: 2 (33.3) n %
  Vomiting: 1 (16.7) n %
12 mg/d
  Abnormal physical sensation: 0 n %
